The results in this text go back to the CombiSolv-Exp solvation set (Vermeire and Green 2021).

The series is described as follows: solvent given as SMILES.
Where [1] appears, read: in CC(C)CCCC(C)CCCC(C)CCCCC(C)CCCC(C)CCCC(C)C.

`CC(=O)OC(C)C`: the “solvation free energy, 298 K” value is, setting by setting: under setting [1], -3.52 kcal/mol; (in CCCCCCCCCC) -3.79 kcal/mol; (in CCCCCCCCCCCCCCCC) -3.55 kcal/mol; (in CCCCCCCCO) -3.99 kcal/mol; (in O) -2.59 kcal/mol; (in [2H]O[2H]) -2.62 kcal/mol.
In the case of `CN1C(=O)CN=C(c2ccccc2)c2cc(Cl)ccc21`, the “solvation free energy, 298 K” value (in O) was -12.6 kcal/mol.
Take `Clc1cc2c(cc1Cl)Oc1cc(Cl)c(Cl)cc1O2`: the “solvation free energy, 298 K” value (in O) is -3.37 kcal/mol.
On the same count and under the same terms, for `NC(=O)c1ccccc1` the value was -11 kcal/mol.
Consider `CCC(=O)OC`, for which the “solvation free energy, 298 K” value runs as follows: (in C1CCOC1) -4.45 kcal/mol; (in CCCCCC) -3.65 kcal/mol; (in CCCCCCC) -3.63 kcal/mol; (in CCCCCCCC) -3.57 kcal/mol; (in CCCCCCCCCC) -3.49 kcal/mol; (in CCCO) -3.89 kcal/mol. Moreover, the “solvation free energy, 298 K” value (in CCO) is -4.15 kcal/mol; the “solvation free energy, 298 K” value (in CO) is -4.32 kcal/mol; the “solvation free energy, 298 K” value (in O) is -2.93 kcal/mol.
For the compound `CCNc1nc(Cl)nc(NCC)n1`, the “solvation free energy, 298 K” value (in O) was -10.1 kcal/mol.
On to `COC(=O)c1cc([N+](=O)[O-])cc([N+](=O)[O-])c1`, for which the “solvation free energy, 298 K” value runs as follows: (in CN(C)C=O) -13.3 kcal/mol; (in O) -8.92 kcal/mol.
Turning to `O=C(CC(=O)C(F)(F)F)c1cccs1`, where the note is “in O”, the “solvation free energy, 298 K” value is -6.15 kcal/mol.
`CCCCCC=O`: the “solvation free energy, 298 K” value by setting is: (in CCCCCCCC) -4.76 kcal/mol; (in CCCCCCCCCCCCCCCC) -4.52 kcal/mol; (in CCCCCCCCO) -5.95 kcal/mol; (in NC=O) -4.02 kcal/mol; (in O) -2.74 kcal/mol; (in [2H]O[2H]) -2.75 kcal/mol.
As for `Clc1c(Cl)c(Cl)c(-c2c(Cl)c(Cl)c(Cl)c(Cl)c2Cl)c(Cl)c1Cl`, the “solvation free energy, 298 K” value by setting is: (in CCCCCCCCC=CCCCCCCCC(=O)OCC(COC(=O)CCCCCCCC=CCCCCCCCC)OC(=O)CCCCCCCC=CCCCCCCCC) -14.6 kcal/mol; (in O) -3.05 kcal/mol.
`CCCSCCC`: the “solvation free energy, 298 K” value (in O) is -1.28 kcal/mol.
In the case of `CC(F)(Cl)Cl`, under “in CCCCCCCC(=O)OCC(COC(=O)CCCCCCC)OC(=O)CCCCCCC”, the “solvation free energy, 298 K” value is -2.89 kcal/mol.
For the compound `O=C(CCCN1CCC(O)(c2ccc(Cl)cc2)CC1)c1ccc(F)cc1`, the “solvation free energy, 298 K” value was -19.5 kcal/mol (in CCCCOC(C)=O) and -15.4 kcal/mol (in O).
As for `C1CCOC1`, the “solvation free energy, 298 K” value reads like this: (in CC(=O)N(C)C) -3.96 kcal/mol; (in CC(C)=O) -4.12 kcal/mol; (in CC(C)CC(C)(C)C) -3.72 kcal/mol; under setting [1], -3.35 kcal/mol; (in CC(C)CCl) -4.2 kcal/mol; (in CC(C)O) -4.01 kcal/mol. Further, the “solvation free energy, 298 K” value (in CCC(C)Cl) was -4.16 kcal/mol; the “solvation free energy, 298 K” value (in CCCCCC) was -3.68 kcal/mol; the “solvation free energy, 298 K” value (in CCCCCCC) was -3.7 kcal/mol; the “solvation free energy, 298 K” value (in CCCCCCCC) was -3.66 kcal/mol; the “solvation free energy, 298 K” value (in CCCCCCCCCCCCCCCC) was -3.43 kcal/mol; the “solvation free energy, 298 K” value (in CCCCCCCCO) is -3.9 kcal/mol. Besides, the “solvation free energy, 298 K” value (in CCCCCl) is -4.19 kcal/mol; the “solvation free energy, 298 K” value (in CCCCN(C=O)CCCC) is -3.89 kcal/mol; the “solvation free energy, 298 K” value (in CCCCOCCCC) is -3.8 kcal/mol; the “solvation free energy, 298 K” value (in CCCCl) is -4.31 kcal/mol; the “solvation free energy, 298 K” value (in CCCO) is -4.02 kcal/mol; the “solvation free energy, 298 K” value (in CCN1CCCC1=O) was -3.95 kcal/mol. Besides, the “solvation free energy, 298 K” value was -3.97 kcal/mol (in CCN(CC)C(C)=O); -3.89 kcal/mol (in CCNC(C)=O); -3.93 kcal/mol (in CCNC=O); -4.09 kcal/mol (in CCO); -4.11 kcal/mol (in CCOC(C)=O); -4.04 kcal/mol (in CN1CCCC1=O). Further, the “solvation free energy, 298 K” value runs as follows: (in CN1CCCCC1=O) -3.92 kcal/mol; (in CNC(C)=O) -3.87 kcal/mol; (in CO) -4.43 kcal/mol; (in CS(C)=O) -3.67 kcal/mol; (in ClC(Cl)(Cl)Cl) -4.28 kcal/mol; (in ClC(Cl)Cl) -5.12 kcal/mol. Besides, the “solvation free energy, 298 K” value reads like this: (in ClCCCl) -4.53 kcal/mol; (in NC=O) -3.69 kcal/mol; (in O) -3.49 kcal/mol; (in O=CN1CCOCC1) -3.7 kcal/mol; (in [2H]O[2H]) -3.5 kcal/mol.
As to `CCCCCCO`, the “solvation free energy, 298 K” value is, setting by setting: (in Brc1ccccc1) -5.98 kcal/mol; (in C1CCOC1) -7.42 kcal/mol; (in CC#N) -6.44 kcal/mol; (in CC(C)CC(C)(C)C) -5.1 kcal/mol; (in CC(C)O) -7.54 kcal/mol; (in CCC(C)=O) -6.96 kcal/mol. Moreover, the “solvation free energy, 298 K” value by setting is: (in CCCCCC) -5.02 kcal/mol; (in CCCCCCC) -5.27 kcal/mol; (in CCCCCCCC) -4.99 kcal/mol; (in CCCCCCCCCC) -4.99 kcal/mol; (in CCCCCCCCCCCCCCCC) -4.89 kcal/mol; (in CCCCCCCCCCO) -6.99 kcal/mol. Further, the “solvation free energy, 298 K” value (in CCCCCCCCO) was -7.06 kcal/mol; the “solvation free energy, 298 K” value (in CCCCCl) was -5.99 kcal/mol; the “solvation free energy, 298 K” value (in CCCCOC(C)=O) is -6.83 kcal/mol; the “solvation free energy, 298 K” value (in CCCOCCC) was -6.31 kcal/mol; the “solvation free energy, 298 K” value (in Cc1ccccc1C) was -5.91 kcal/mol; the “solvation free energy, 298 K” value (in NC=O) is -6.04 kcal/mol. For the same compound, the “solvation free energy, 298 K” value by setting is: (in O) -4.4 kcal/mol; (in [2H]O[2H]) -4.57 kcal/mol.
On to `Cc1cccc2ccccc12`, for which the “solvation free energy, 298 K” value (in CCO) was -7.47 kcal/mol; the “solvation free energy, 298 K” value (in O) was -2.32 kcal/mol; the “solvation free energy, 298 K” value (in OCCOCCO) was -7.33 kcal/mol.
In the case of `Clc1cc(-c2cc(Cl)c(Cl)c(Cl)c2)cc(Cl)c1Cl`, for the setting “in O”, the “solvation free energy, 298 K” value is -4.11 kcal/mol.
With `CC(C)Cl`, the “solvation free energy, 298 K” value reads like this: (in C=CCCCCCCCCCCCCCC) -2.78 kcal/mol; (in O) -0.23 kcal/mol.
For the compound `CC1(C)C2CC3C(C2)C31C`, where the note is “in O”, the “solvation free energy, 298 K” value is 0.87 kcal/mol.
In the case of `ClC1=C(Cl)C2(Cl)C3C4C=CC(C4)C3C1(Cl)C2(Cl)Cl` (centres undefined), the “solvation free energy, 298 K” value (in CCCCCCCCO) was -11.3 kcal/mol and the “solvation free energy, 298 K” value (in O) is -3.75 kcal/mol.
`Nc1ccc2c(c1)C(=O)c1ccccc1C2=O`: for the setting “in O”, the “solvation free energy, 298 K” value is -11.5 kcal/mol.
As for `CNc1ccccc1`, the “solvation free energy, 298 K” value (in CCCCCCCCCCCCCCCC) is -6.06 kcal/mol and the “solvation free energy, 298 K” value (in O) is -4.69 kcal/mol.
Consider `COC(=O)C(F)(F)F`, for which the “solvation free energy, 298 K” value (in O) was -1.1 kcal/mol.
Regarding `Cc1ccccc1O`, the “solvation free energy, 298 K” value reads like this: (in CC(C)CC(C)(C)C) -5.68 kcal/mol; (in O) -5.85 kcal/mol.
Take `CCc1cccc2ccccc12`: the “solvation free energy, 298 K” value (in O) is -2.3 kcal/mol.
For `CCOC(C)OCC`, the “solvation free energy, 298 K” value is -5.27 kcal/mol (in ClCCCl) and -3.28 kcal/mol (in O).
`O=C(O)c1cc([N+](=O)[O-])ccc1Cl`: the “solvation free energy, 298 K” value is, setting by setting: (in C1CCOC1) -13.6 kcal/mol; (in CC(C)(C)O) -13.1 kcal/mol; (in CC(C)CCO) -12.8 kcal/mol; (in CC(C)CO) -12.7 kcal/mol; (in CC(C)O) -13.1 kcal/mol; (in CC(C)OC(C)C) -12 kcal/mol. Besides, the “solvation free energy, 298 K” value by setting is: (in CCC(C)O) -12.9 kcal/mol; (in CCCC(C)O) -12.8 kcal/mol; (in CCCCCCCCCCO) -12.4 kcal/mol; (in CCCCCCCCO) -12.6 kcal/mol; (in CCCCCCCO) -12.6 kcal/mol; (in CCCCCCO) -12.6 kcal/mol. The “solvation free energy, 298 K” value is -12.8 kcal/mol (in CCCCCO); -12.9 kcal/mol (in CCCCO); -12.4 kcal/mol (in CCCCOC(C)=O); -13 kcal/mol (in CCCO); -12.6 kcal/mol (in CCCOC(C)=O); -13.2 kcal/mol (in CCO). In addition, the “solvation free energy, 298 K” value is, setting by setting: (in CCOC(C)=O) -12.8 kcal/mol; (in CCOCC) -12.8 kcal/mol; (in COC(C)=O) -12.9 kcal/mol; (in O) -9.48 kcal/mol.
